Values quoted from earlier work, collected in patent US11083704B2, “Method of administering nitroxyl donating compounds” (Cardioxyl Pharmaceuticals, Inc., priority 2017, dated 2021).

How the values were obtained:
[1] = preclinical models and Phase I/IIa studies
[2] = healthy patients and patients hospitalized with advanced heart failure

Structure (SMILES): Cc1ccc(S(=O)(=O)NO)o1 [N-hydroxy-5-methylfuran-2-sulfonamide]
- inotropy [1]: increased inotropy
- lusitropy [1]: improved lusitropy
- vasodilation [1]: peripheral vasodilation
- safety and tolerability of infusions [2]: safe and well-tolerated
